According to ChEMBL document CHEMBL1201862, “PubChem BioAssay data set” (2004):
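Cells were grown in 96-well plates and exposed to each compound for 48 hours at five concentrations; endpoints were interpolated linearly between bracketing concentrations, or set to the highest concentration if not reached. Here, GI50 denotes the concentration required for 50% inhibition of growth.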 Activity calls are given as the source filed them. Cut-off read from the data, not from the text of the source: active = GI50 up to about 1.1 µM and inactive = higher.

Assays:
Experiment in all cases: NCI tumour cell line growth inhibition, 48 h
HCT-116 = tested on: HCT-116
UACC-62 = tested on: UACC-62
BT-549 = tested on: BT-549
OVCAR-8 = tested on: OVCAR-8
A498 = tested on: A498
KM12 = tested on: KM12
LOX IMVI = tested on: LOX IMVI
786-0 = tested on: 786-0
SN12C = tested on: SN12C
OVCAR-3 = tested on: OVCAR-3
SNB-75 = tested on: SNB-75
HL-60 = tested on: HL-60
NCI-H460 = tested on: NCI-H460
M14 = tested on: M14
HCT-15 = tested on: HCT-15
SF-268 = tested on: SF-268
SK-MEL-5 = tested on: SK-MEL-5
SNB-19 = tested on: SNB-19
HT-29 = tested on: HT-29

SMILES | GI50 (HCT-116) | GI50 (UACC-62) | GI50 (BT-549) | GI50 (OVCAR-8) | GI50 (A498) | GI50 (KM12) | GI50 (LOX IMVI) | GI50 (786-0) | GI50 (SN12C) | GI50 (OVCAR-3) | GI50 (SNB-75) | GI50 (HL-60) | GI50 (NCI-H460) | GI50 (M14) | GI50 (HCT-15) | GI50 (SF-268) | GI50 (SK-MEL-5) | GI50 (SNB-19) | GI50 (HT-29)
O=C(O)CCSCc1ccccc1 | > 100 µM (inactive) | > 100 µM (inactive) | > 100 µM (inactive) | > 100 µM (inactive) | > 100 µM (inactive) | > 100 µM (inactive) | > 100 µM (inactive) | > 100 µM (inactive) | > 100 µM (inactive) | > 100 µM (inactive) | > 100 µM (inactive) | > 100 µM (inactive) | > 100 µM (inactive) | > 100 µM (inactive) | > 100 µM | > 100 µM (inactive) | > 100 µM (inactive) | > 100 µM (inactive) | > 100 µM (inactive)
N#Cc1c(N2CCCC2)ncn(Cc2ccccc2)c1=O | > 100 µM (inactive) | > 100 µM (inactive) | > 100 µM (inactive) | > 100 µM (inactive) | > 100 µM (inactive) | > 100 µM (inactive) | > 100 µM (inactive) | > 100 µM (inactive) | > 100 µM (inactive) | > 100 µM (inactive) | > 100 µM (inactive) | > 100 µM (inactive) | > 100 µM (inactive) | > 100 µM (inactive) | > 100 µM | > 100 µM (inactive) | > 100 µM (inactive) | > 100 µM (inactive) | > 100 µM (inactive)
COc1ccc(/N=C2\C(=O)C3=C(OC(C)(C)CC3)c3ccccc32)cc1 | 0.499 µM (active) | 0.94 µM (active) | 1.1 µM (active) | 0.43 µM (active) | 7.91 µM (inactive) | 0.968 µM (active) | 0.481 µM (active) | 0.971 µM (active) | 0.889 µM (active) | 0.361 µM (active) | 1.11 µM (active) | 0.592 µM (active) | 1.5 µM (inactive) | 0.769 µM (active) | 1.05 µM | 1.8 µM (inactive) | 0.838 µM (active) | 0.916 µM (active) | 0.741 µM (active)
O=C(O)C1C(C(=O)O)C2C(=O)C=CC1N2Cc1ccccc1 (centres undefined) | 3.68 µM (inactive) | 7.96 µM (inactive) | 4.57 µM (inactive) | 4.16 µM (inactive) | 20.3 µM (inactive) | 3.61 µM (inactive) | 3.4 µM (inactive) | 2.49 µM (inactive) | 1.84 µM (inactive) | 2.87 µM (inactive) | 2.65 µM (inactive) | 1.77 µM (inactive) | 1.98 µM (inactive) | 2.25 µM (inactive) | 2.46 µM | 3.24 µM (inactive) | 5.32 µM (inactive) | 5.55 µM (inactive) | 3.12 µM (inactive)
CN1C(=O)[C@@]2(C=CC3(CC2)OCCO3)c2ccccc21 | > 50 µM (inactive) | > 50 µM (inactive) | > 50 µM (inactive) | > 50 µM (inactive) | > 50 µM (inactive) | > 37.5 µM (inactive) | > 50 µM (inactive) | > 50 µM (inactive) | > 50 µM (inactive) | > 50 µM (inactive) | > 25.9 µM (inactive) | 35.7 µM (inactive) | > 50 µM (inactive) | > 50 µM (inactive) | > 48.2 µM | 10.3 µM (inactive) | > 50 µM (inactive) | > 50 µM (inactive) | > 50 µM (inactive)
Cc1c(-c2ccccc2)c(C#N)c2nnn(C3CCCCC3)c(=O)n12 | 52.6 µM (inactive) | > 100 µM (inactive) | > 100 µM (inactive) | 44 µM (inactive) | 65.8 µM (inactive) | > 100 µM (inactive) | > 100 µM (inactive) | 24.5 µM (inactive) | 98.2 µM (inactive) | > 100 µM (inactive) | 28 µM (inactive) | > 100 µM (inactive) | > 100 µM (inactive) | 87.3 µM (inactive) | > 100 µM | > 100 µM (inactive) | 72.4 µM (inactive) | 66.5 µM (inactive) | 11.6 µM (inactive)
CC1=C2c3ccccc3N(S(=O)(=O)c3ccccc3)[C@H]2[C@H](C(=O)N2C3CC4CC[C@@]3(CS2(=O)=O)C4(C)C)CC1 (some centres undefined) | 11.7 µM (inactive) | 9.55 µM (inactive) | 8.28 µM (inactive) | 21.6 µM (inactive) | 87.9 µM (inactive) | 49.5 µM (inactive) | 23.6 µM (inactive) | 0.41 µM (active) | 39.1 µM (inactive) | 17 µM (inactive) | 0.635 µM (active) | 0.641 µM (active) | 5.48 µM (inactive) | 64.4 µM (inactive) | 5.36 µM | 17.9 µM (inactive) | 22.8 µM (inactive) | 24.9 µM (inactive) | 17.6 µM (inactive)
O=C(Oc1ccccc1)c1cc2cc(CCl)ccc2oc1=O | 34.4 µM (inactive) | 13.4 µM (inactive) | 64.3 µM (inactive) | 47.2 µM (inactive) | 19.1 µM (inactive) | 63.4 µM (inactive) | 49.4 µM (inactive) | 19.4 µM (inactive) | 23.1 µM (inactive) | 29.1 µM (inactive) | 21.5 µM (inactive) | 18.2 µM (inactive) | 20.3 µM (inactive) | 13.1 µM (inactive) | 31.5 µM | 23.2 µM (inactive) | 12.8 µM (inactive) | 71.6 µM (inactive) | 24.4 µM (inactive)
O=C(O)C1CCCN1Cc1c[nH]c2ccccc12 (centres undefined) | > 100 µM (inactive) | > 100 µM (inactive) | > 100 µM (inactive) | > 100 µM (inactive) | > 100 µM (inactive) | > 100 µM (inactive) | > 100 µM (inactive) | > 100 µM (inactive) | > 100 µM (inactive) | > 100 µM (inactive) | > 100 µM (inactive) | > 100 µM (inactive) | > 100 µM (inactive) | > 100 µM (inactive) | > 100 µM | > 100 µM (inactive) | > 100 µM (inactive) | > 100 µM (inactive) | > 100 µM (inactive)
O=C(CNc1ccc(Cl)cc1)Nn1c(-c2ccccc2)nc2ccccc2c1=O | 1.62 µM (inactive) | 3.89 µM (inactive) | 2.32 µM (inactive) | 3.72 µM (inactive) | 14.9 µM (inactive) | 10.8 µM (inactive) | 1.3 µM (inactive) | 4.18 µM (inactive) | 7.43 µM (inactive) | 12.1 µM (inactive) | 10.1 µM (inactive) | 6.65 µM (inactive) | 8.79 µM (inactive) | 6.18 µM (inactive) | 6.7 µM | 4.62 µM (inactive) | 2.84 µM (inactive) | 10.8 µM (inactive) | 6.27 µM (inactive)
CC(=O)O[C@H]1C(=O)[C@@]2(C)[C@H]([C@H](OC(=O)c3ccccc3)[C@]3(O)C[C@H](OC(=O)[C@H](O)[C@@H](NC(=O)C(C)(O)C(C)O)c4ccccc4)C(C)=C1C3(C)C)[C@]1(OC(C)=O)CO[C@@H]1C[C@@H]2O (some centres undefined) | 0.14 µM (active) | 0.242 µM (active) | 0.142 µM (active) | 1.42 µM (inactive) | 9.44 µM (inactive) | 0.167 µM (active) | 0.607 µM (active) | 1.33 µM (inactive) | 0.485 µM (active) | 0.172 µM (active) | 0.0514 µM (active) | 0.0859 µM (active) | 0.282 µM (active) | 0.337 µM (active) | 17 µM | 0.31 µM (active) | 0.207 µM (active) | 0.796 µM (active) | 0.128 µM (active)
